Laboratory results from patent US4288590A, “7 -[Dα-(4-Hydroxy-1,5-naphthyridine-3-carboxamido)-α-arylacetam ido]-3-(N,N-dimethyl-aminomethylpyridinium) methyl-3-cephem-4-carboxylates” (Bristol-Myers Company, priority 1980, dated 1981).
Structures can show the parent of a compound that is named as a salt. Where two headings read alike, the source gives them in different places.

Key:
P. mirabilis A9900 = assay: In vivo efficacy, experimental infection in mice; conditions: Proteus mirabilis, A9900, in Mus musculus, im, 120 h, read-out: PD50 (median protective dose)
Protocol: (§2) The mice were treated with test compound by im route immediately after the bacterial challenge.

S. aureus Smith A9537 [1] = assay: In vivo efficacy, experimental infection in mice; conditions: Staphylococcus aureus, SMITHA9537, in Mus musculus, im, 120 h, read-out: PD50 (median protective dose)
Protocol: as §2

E. cloacae = assay: In vitro activity, MIC of strain group (Table 2); assay type: cell-based; conditions: Enterobacter cloacae; Gn-II E. cloacae, 7 strains; read-out: Geometric mean of MIC
Ps. aeruginosa A15150 = assay: MIC, serial two-fold agar dilution (Table 1); assay type: cell-based; conditions: Pseudomonas aeruginosa, Mueller-Hinton agar
Protocol: (§1) Minimum inhibitory concentrations (MIC) of BB-S 651, BB-S 669 and BB-S 676 were determined by serial two-fold agar dilution method using Steers' apparatus on Mueller-Hinton agar plate against 15 test organisms for primary screening as shown in Table 1.

Ps. aeruginosa A9843 = assay: MIC, serial two-fold agar dilution (Table 1); assay type: cell-based; conditions: Pseudomonas aeruginosa, Mueller-Hinton agar
Protocol: as §1

E. coli A9660 = assay: MIC, serial two-fold agar dilution (Table 1); assay type: cell-based; conditions: Escherichia coli; E. coli A9660, cephalothin-sensitive; Mueller-Hinton agar
Protocol: as §1

[2] = tested on: S. aureus BX-1633-2 A9606; assay: MIC, serial two-fold agar dilution (Table 1); assay type: cell-based; conditions: Staphylococcus aureus, BX16332A9606; S. aureus BX-1633-2 A9606, penicillinase-producing; Mueller-Hinton agar; read-out: MIC
Protocol: as §1

S. marcescens A20019 = assay: MIC, serial two-fold agar dilution (Table 1); assay type: cell-based; conditions: Serratia marcescens, Mueller-Hinton agar
Protocol: as §1

Ps. aeruginosa A20717 = assay: MIC, serial two-fold agar dilution (Table 1); assay type: cell-based; conditions: Pseudomonas aeruginosa, Mueller-Hinton agar
Protocol: as §1

Ps. aeruginosa A20718 = assay: MIC, serial two-fold agar dilution (Table 1); assay type: cell-based; conditions: Pseudomonas aeruginosa, Mueller-Hinton agar
Protocol: as §1

E. coli Juhl A15119 = assay: MIC, serial two-fold agar dilution (Table 1); assay type: cell-based; conditions: Escherichia coli, JUHLA15119; E. coli Juhl A15119, cephalothin-sensitive; Mueller-Hinton agar
Protocol: as §1

S. aureus #193 = assay: MIC, serial two-fold agar dilution (Table 1); assay type: cell-based; conditions: Staphylococcus aureus; S. aureus #193, penicillinase-producing; Mueller-Hinton agar; read-out: MIC
Protocol: as §1

E. cloacae A9656 = assay: MIC, serial two-fold agar dilution (Table 1); assay type: cell-based; conditions: Enterobacter cloacae, Mueller-Hinton agar
Protocol: as §1

E. coli A15148 = assay: MIC, serial two-fold agar dilution (Table 1); assay type: cell-based; conditions: Escherichia coli; E. coli A15148, cephalothin-resistant; Mueller-Hinton agar
Protocol: as §1

S. aureus Smith A9537 [3] = assay: MIC, serial two-fold agar dilution (Table 1); assay type: cell-based; conditions: Staphylococcus aureus, SMITHA9537, Mueller-Hinton agar
Protocol: as §1

Ps. aeruginosa A20229 = assay: MIC, serial two-fold agar dilution (Table 1); assay type: cell-based; conditions: Pseudomonas aeruginosa, Mueller-Hinton agar
Protocol: as §1

S. aureus 209P A9497 = assay: MIC, serial two-fold agar dilution (Table 1); assay type: cell-based; conditions: Staphylococcus aureus; S. aureus 209P A9497; Mueller-Hinton agar; read-out: MIC
Protocol: as §1

E. coli A15164 = assay: MIC, serial two-fold agar dilution (Table 1); assay type: cell-based; conditions: Escherichia coli; E. coli A15164, cephalothin-resistant; Mueller-Hinton agar
Protocol: as §1

[4] = Additional mouse blood levels after intramuscular administration (Table 4); assay type: in vivo; conditions: mice, im, read-out: Blood level
Protocol: […] The blood samples were collected from the orbital sinuses into heparinized capillary tubes at 15, 30, 60 and 120 minutes after administration. The antibiotic concentration was determined by the paper disc-agar diffusion method using E. coli NIHJ or S. lutea PCI 1001 as the assay organism.

S. aureus BX-1633 A9606 = assay: In vivo efficacy, experimental infection in mice; conditions: Staphylococcus aureus, BX1633A9606, in Mus musculus, im, 120 h, read-out: PD50 (median protective dose)
Protocol: as §2

SMILES	ED50 (P. mirabilis A9900)	ED50 (S. aureus Smith A9537 [1])	concentration at 0.5 h ([4]; 10 mg/kg, dose 10, 1/2 hour)	concentration at 0.25 h ([4]; 10 mg/kg, dose 10, 1/4 hour)	concentration at 1 h ([4]; 10 mg/kg, dose 10, 1 hour)	concentration at 2 h ([4]; 10 mg/kg, dose 10, 2 hour)	concentration at 0.5 h ([4]; 20 mg/kg, dose 20, 1/2 hour)	concentration at 0.25 h ([4]; 20 mg/kg, dose 20, 1/4 hour)	concentration at 1 h ([4]; 20 mg/kg, dose 20, 1 hour)	concentration at 2 h ([4]; 20 mg/kg, dose 20, 2 hour)	concentration at 0.5 h ([4]; 40 mg/kg, 1/2 hour)	concentration at 0.25 h ([4]; 40 mg/kg, 1/4 hour)	concentration at 1 h ([4]; 40 mg/kg, 1 hour)	concentration at 2 h ([4]; 40 mg/kg, 2 hour)	ED50 (S. aureus BX-1633 A9606)	also measured
CN(C)Cc1ccc[n+](CC2=C(C(=O)[O-])N3C(=O)C(NC(=O)[C@H](NC(=O)c4cnc5cccnc5c4O)c4ccc(O)cc4)C3SC2)c1 (stereo partly drawn) [BB-S 651, 7-[D-α-(4-Hydroxy-1,5-naphthyridine-3-carboxamido)-α-(4-hydroxyphenyl)acetamido]-3-(3-N,N-dimethylaminomethylpyridinium)methyl-3-cephem-4-carboxylate Hydrochloride]	> 25 mg/kg	1.1 mg/kg	3300 ng/mL	4300 ng/mL	2500 ng/mL	< 800 ng/mL	7400 ng/mL	10000 ng/mL	5800 ng/mL	< 800 ng/mL	14000 ng/mL	20000 ng/mL	10000 ng/mL	3000 ng/mL	6.3 mg/kg	MIC (E. cloacae): > 100 µg/mL; MIC (Ps. aeruginosa A15150): 0.8 µg/mL; MIC (Ps. aeruginosa A9843): 1.6 µg/mL; MIC (E. coli A9660): 1.6 µg/mL; MIC [2]: 6.3 µg/mL; MIC (S. marcescens A20019): 50 µg/mL; MIC (Ps. aeruginosa A20717): 1.6 µg/mL; MIC (Ps. aeruginosa A20718): 0.8 µg/mL; MIC (E. coli Juhl A15119): 6.3 µg/mL; MIC (S. aureus #193): 6.3 µg/mL; MIC (E. cloacae A9656): 12.5 µg/mL; MIC (E. coli A15148): 3.1 µg/mL; MIC (S. aureus Smith A9537 [3]): 3.1 µg/mL; MIC (Ps. aeruginosa A20229): 0.8 µg/mL; MIC (S. aureus 209P A9497): 0.8 µg/mL; MIC (E. coli A15164): 25 µg/mL
CCN1CCN(C(=O)N[C@@H](C(=O)N[C@@H]2C(=O)N3C(C(=O)O)=C(CSc4nnnn4C)CS[C@H]23)c2ccc(O)cc2)C(=O)C1=O [Cefoperazone, reference compound]	6.3 mg/kg	2.4 mg/kg	3500 ng/mL	5000 ng/mL	1200 ng/mL	< 800 ng/mL	6300 ng/mL	10500 ng/mL	2500 ng/mL	< 800 ng/mL	12000 ng/mL	18000 ng/mL	5400 ng/mL	1200 ng/mL	1.6 mg/kg	–
